Data: US9206215B2, “Hydrous crystalline 2-O-α-D-glucosyl-L-ascorbic acid, particulate composition comprising the same, their preparation and uses” (HAYASHIBARA CO., LTD., priority 2010, dated 2015)

Key:
Format in all cases: physicochemical
[1] = Tabletting property (cracking or chipping of pressed tablets); details: powder with particle size 53 to 106 μm, 0.4 g, one ton load for 30 sec, 10 tablets observed for cracking or chipping
Description: The tabletting property of a particulate composition containing hydrous crystalline ascorbic acid 2-glucoside of the present invention was investigated by the following method and compared with that of a conventional particulate composition containing anhydrous crystalline ascorbic acid 2-glucoside.
A hydrous crystalline ascorbic acid 2-glucoside powder with an ascorbic acid 2-glucoside purity of 99.2% by weight, obtained by the method in Experiment 3, was sieved to collect a powder with a particle size ranging from 53 to 106 μm. The powder thus obtained was placed in a metallic mold for tabletting (11 mm diameter and 30 mm thickness) in an amount of 0.4 g, and tabletted by loading on the powder one ton for 30 sec using “SSP-10A”, a portable press machine, commercialized by Shimadzu Corp., Kyoto, Japan, followed by taking out the resulting tablets by releasing the load. The procedure was repeated 10 times to prepare 10 tablets in total. As a control, “AA2G”, a trade mark of a commercialized particulate composition containing anhydrous crystalline ascorbic acid 2-glucoside with a purity of at least 98%, commercialized by Hayashibara Biochemical Laboratories, Inc., Okayama, Japan, was used to prepare a powder with a particle size ranging from 53 to 106 μm, which was then prepared into 10 tablets by the same method as above. […]

[2] = Oil-holding capacity with corn oil; details: for Oil-holding capacity: five grams of corn oil, particle size 53 to 106 μm, powder added until end point
Method: Using a particulate composition containing hydrous crystalline ascorbic acid 2-glucoside obtained by the method in Experiment 3-2, the oil-holding capacity of the particulate composition was determined. As a control, “AA2G”, a product name of a commercialized particulate composition containing anhydrous crystalline ascorbic acid 2-glucoside with a purity of at least 98% by weight, commercialized by Hayashibara Biochemical Laboratories, Inc., Okayama, Japan, was used.
The measurements for oil-holding capacity of the particulate compositions were conducted as follows in accordance with the method disclosed in Japanese Patent Kokai No. 31650/84. Five grams of a corn oil (a reagent grade specimen, Lot No.: WKL1215, commercialized by Wako Pure Chemical Industries, Osaka, Japan, was placed in a 50-ml plastic container, to which was gradually added while stirring the particulate composition containing hydrous crystalline ascorbic acid 2-glucoside or the particulate composition containing anhydrous crystalline ascorbic acid 2-glucoside, both of which had been adjusted to give a particle size of 53 to 106 μm similarly as in Experiment 6. Although the resulting mixture retains a free-flowing ability while the additive amount of any of the particulate compositions is relatively low, but it increases its viscosity as the increase of the additive amount and becomes a clump in due course. As the additive amount further increases, the clump increases its hardness and finally it could not keep together and begins to be unstiffen. The moment was regarded as the end point and the oil-holding capacity was determined by the following equation based on the amount of each crystalline particulate composition that had been added until the end point.

[3] = Tablet hardness measured on a rheometer; details: tablet of Experiment 6, RHEOMETER CR-500DX
Description: During the preparation of tablets, the particulate composition was frequently observed, as a causative of cracking, to be adhered to a cylinder (punch) of the portable press machine at the stage of releasing the load and it induced cracking at the stage of taking out from the metallic mold of the press machine.

[4] = listed as particulate composition containing anhydrous crystalline ascorbic acid 2-glucosi
[5] = listed as particulate composition containing hydrous crystalline ascorbic acid 2-glucoside

Row | SMILES | Tablet form [1, 4] | Oil-holding capacity [2] | Oil-holding capacity [2, 4] | degree of hardness of tablet [3] | Tablet form [1, 5] | Oil-holding capacity [2, 5] | Oil-holding capacity relative to the anhydrous crystalline control ([2]; hydrous versus anhydrous particulate composition)
1 | O=C1O[C@H]([C@@H](O)CO)C(O)=C1O[C@H]1O[C@H](CO)[C@@H](O)[C@H](O)[C@H]1O [Particulate composition containing anhydrous crystalline asc] [2-O-α-D-glucosyl-L-ascorbic acid] | cracking or chipping was observed in 9 out of 10 tablets | 25.2 | 25.2 | – | – | – | –
2 | O=C1O[C@H]([C@@H](O)CO)C(O)=C1O[C@H]1O[C@H](CO)[C@@H](O)[C@H](O)[C@H]1O [Particulate composition containing hydrous crystalline ascor] [2-O-α-D-glucosyl-L-ascorbic acid] | – | 38.3 | – | about 90 N | neither cracking nor chipping was observed in all the 10 tablets | 38.3 | about 1.5 folds
